Drawing on ChEMBL document CHEMBL1125508, this text covers k off and Rate of hydride transfer for four molecules.

Molecules are shown by their SMILES. Substitutions are numbered along the chain they refer to.

Test [1] deals with T1, Dihydrofolate reductase (Escherichia coli), P0ABQ4 [T46A].
T1 sequence (whole entry): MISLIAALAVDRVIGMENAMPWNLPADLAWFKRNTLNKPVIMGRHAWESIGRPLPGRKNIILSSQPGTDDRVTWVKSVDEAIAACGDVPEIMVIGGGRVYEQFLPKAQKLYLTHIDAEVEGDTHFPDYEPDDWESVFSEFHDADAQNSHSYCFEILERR

In test [2] the test system is T2, Dihydrofolate reductase (Escherichia coli), P0ABQ4 [T46N].
T2 sequence (whole entry): T1 sequence (whole entry) with A46N

In test [3] the test system is T3, Dihydrofolate reductase (Escherichia coli), P0ABQ4 [T46S].
T3 sequence (whole entry): T1 sequence (whole entry) with A46S

Test [4] addresses T4, Dihydrofolate reductase (Escherichia coli) (UniProt P0ABQ4).
T4 sequence (whole entry): T1 sequence (whole entry) with A46T
Description: Dissociation rate constant of compound for wild type Escherichia coli dihydrofolate reductase

Test [5] has as its target T4, Dihydrofolate reductase (Escherichia coli). This is another data set of the same source.
Description: Rate of hydride transfer (E-N) of compound for wild type Escherichia coli dihydrofolate reductase

For `NC(=O)c1ccc[n+]([C@H]2O[C@@H](COP(=O)([O-])OP(=O)(O)OC[C@H]3O[C@@H](n4cnc5c(N)ncnc54)[C@H](OP(=O)(O)O)[C@@H]3O)[C@H](O)[C@@H]2O)c1`, the k off came out at 274 s⁻¹ in test [1], 253 s⁻¹ in test [2], 230 s⁻¹ in test [3] and 200 s⁻¹ in test [4].

In turn, `Nc1nc(O)c2c(n1)NCC(CNc1ccc(C(=O)N[C@@H](CCC(=O)O)C(=O)O)cc1)N2` (stereo not given in full) had a Rate of hydride transfer in test [5] of 950 s⁻¹.

`Nc1nc(=O)c2c([nH]1)NCC(CNc1ccc(C(=O)N[C@@H](CCC(=O)O)C(=O)O)cc1)=N2` registered a k off in test [4] of 22 s⁻¹.

As for `NC(=O)c1ccc[n+]([C@@H]2O[C@H](COP(=O)([O-])OP(=O)(O)OC[C@H]3O[C@@H](n4cnc5c(N)ncnc54)[C@H](OP(=O)(O)O)[C@@H]3O)[C@@H](O)[C@H]2O)c1`, the k off in test [1] turned out to be 28 s⁻¹; in test [2] it was 56 s⁻¹; in test [3] it was 60 s⁻¹; in test [4] it was 3.5 s⁻¹.
